From publication PMC6156755, “Using Human Plasma as an Assay Medium in Caco-2 Studies Improves Mass Balance for Lipophilic Compounds” (Pharmaceutical Research, 2018)

Key:
[1] = test system: P-gp; test: Caco-2 permeability assay with pH 7.4 buffer or human plasma in both chambers; conditions: human, Caco-2, pH 7.4, with verapamil 100 µM, Papp B-A, + 100 μM verapamil
[2] = test system: Caco-2 cell monolayer; test: as above
[3] = as above; conditions: human
[4] = in vitro; conditions: human
[5] = Human plasma protein binding (ultracentrifugation or rapid equilibrium dialysis); assay type: in vitro ADME; conditions: pH 7.4; neat human plasma, 37°C, concentration comparable to Caco-2 assay; read-out: fu (fraction unbound in plasma)
Description: Binding was assessed using one of two methods: ultracentrifugation ([31]) using neat human plasma or rapid equilibrium dialysis (RED) using either neat or diluted plasma. […] To allow analysis with a single calibration curve, the total plasma and protein-free supernatant samples were ‘matrix-matched’ by taking aliquots of protein-free supernatant samples and adding to fresh tubes containing an equal volume of blank plasma, or taking aliquots of the total plasma samples and adding to fresh tubes containing an equal volume of Dulbecco’s phosphate-buffered saline (DPBS). In this way, the final composition of both the protein-free supernatant samples and the total plasma samples were ‘matched’ prior to the analysis against a common calibration curve prepared in a 1:1 mixture of human plasma and DPBS. All samples were then stored frozen at −80°C until analysis.
The holding plate was then placed on a plate shaker (set at 800 rpm; ThermoMixer C, Eppendorf) and maintained at 37°C under a 2% CO2 atmosphere. The dialysis was conducted for 6 h, assuming steady state was achieved by the end of this period ([32]). Samples were then removed from both the donor and dialysate chambers of each RED insert. […] Samples were matrix matched as described above (but using PBS buffer instead of DPBS) and stored at −80°C until analysis.
For the more lipophilic compounds with potential for very high binding, the RED method was used with diluted plasma to increase the chance of detecting concentrations in the dialysate samples. Diluted human plasma (10% v/v in pH 7.4 phosphate buffered saline) was spiked with each compound (at 10% of the concentration used for the Caco-2 experiment with neat plasma) and binding conducted as described above. The binding in neat plasma was then calculated by correcting for the dilution as described below.
For binding measurements in neat plasma by ultracentrifugation, the fraction unbound (fu) was calculated from the ratio of the average unbound concentration in protein free supernate (Cunbound) to the average total concentration in non-centrifuged plasma (Ctotal). The standard deviation (SD) for the fu value was calculated using the propagation of errors approach as described previously ([33]). For binding measurements using the RED method in neat plasma, fu was calculated from the ratio of the dialysate to total plasma concentration for each dialysis unit and the mean and SD calculated for replicate units (n = 3).
For RED binding assessments using 10% plasma, the fu − diluted for individual dialysis units was calculated in the same way as described above.

With `C[C@H]1O[C@@H](O[C@H]2[C@@H](O)C[C@H](O[C@H]3[C@@H](O)C[C@H](O[C@H]4CC[C@@]5(C)[C@H](CC[C@@H]6[C@@H]5C[C@@H](O)[C@]5(C)[C@@H](C7=CC(=O)OC7)CC[C@]65O)C4)O[C@@H]3C)O[C@@H]2C)C[C@H](O)[C@@H]1O` [^3H-Digoxin, [^3H(G)]-digoxin] the Papp B→A ([1]; buffer) was 5.8 ± 0.53 ×10⁻⁶ cm/s, the Papp B→A ([1]; plasma, corrected for fu) was 7.4 ± 0.49 ×10⁻⁶ cm/s and the “Mass balance B-A” value ([2]; buffer pH 7.4 in both chambers) was 100 ± 0%. The “Mass balance B-A” value ([2]; buffer, + 100 μM verapamil) was 100 ± 0.58%, the “Mass balance A-B” value ([2]; buffer, + 100 μM verapamil (P-gp inhibitor)) was 99 ± 0.58% and the “Mass balance B-A” value ([2]; human plasma in both chambers) was 100 ± 5.8%. For the same compound, the “Mass balance A-B” value ([2]; plasma, + 100 μM verapamil) was 96 ± 2.1%, the “Mass balance B-A” value ([2]; plasma, + 100 μM verapamil) was 99 ± 0.58% and the Papp A→B ([3]; Caco-2, pH 7.4, Papp A-B, buffer pH 7.4 in both chambers) was 2.7 ± 0.21 ×10⁻⁶ cm/s. It also gave a Papp B→A ([3]; Caco-2, pH 7.4, Papp B-A, buffer pH 7.4 in both chambers) of 18 ± 0.58 ×10⁻⁶ cm/s, a Papp A→B ([3]; Caco-2, pH 7.4, with verapamil 100 µM, Papp A-B, buffer, + 100 μM verapamil) of 4.6 ± 0.46 ×10⁻⁶ cm/s and a Papp A→B ([3]; Caco-2, pH 7.4, with verapamil 100 µM, Papp A-B, plasma, + 100 μM verapamil, corrected for fu) of 6.2 ± 1 ×10⁻⁶ cm/s. It also gave a Papp A→B ([4]; Caco-2, pH 7.4, Papp A-B) of 4.7 ± 0.15 ×10⁻⁶ cm/s, a Papp B→A ([4]; Caco-2, pH 7.4, Papp B-A) of 26 ± 1.5 ×10⁻⁶ cm/s and a fraction unbound [5] of 0.61.
